The values that follow come from patent publication US8785488B2 (Exelixis Patent Company LLC, priority 2009, dated 2014).

A word on the EC50: it is the concentration needed to bring the measured effect to its halfway point.

One experiment concerns the target T1, human TGR5 (h-TGR5) (Homo sapiens, UniProt Q8TDU6).
T1 construct: expressed in transfected cells
T1 sequence (Q8TDU6 1-330): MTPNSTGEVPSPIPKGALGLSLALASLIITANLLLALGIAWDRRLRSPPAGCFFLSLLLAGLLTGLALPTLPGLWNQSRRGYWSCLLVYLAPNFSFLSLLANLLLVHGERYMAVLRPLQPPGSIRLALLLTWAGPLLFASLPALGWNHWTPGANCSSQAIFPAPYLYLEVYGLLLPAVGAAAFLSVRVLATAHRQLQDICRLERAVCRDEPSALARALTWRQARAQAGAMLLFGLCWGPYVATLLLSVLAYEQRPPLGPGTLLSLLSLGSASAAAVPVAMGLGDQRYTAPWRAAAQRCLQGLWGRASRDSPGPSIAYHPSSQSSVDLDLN
As to the kind of experiment: TGR5/CRE-Luciferiase Assay (HEK 293 hTGR5/CRE-Luc cells). The class given is cell-based. Particulars: h-TGR5 CRE-Luc EC50, Table 1; read-out: CRE-Luc (EC50). The method in brief: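 HEK293 cells stably carrying hTGR5 and a CRE-luciferase reporter were exposed to serially diluted compounds (diluted in DMEM with 5% DMSO) for 6 h. Cells were then lysed in luciferase buffer, luminescence was read, and EC50 values were derived from dose-response curves.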

Another experiment concerns the target T2, h-TGR5 (Homo sapiens, UniProt Q8TDU6).
T2 construct: expressed in transfected cells
T2 sequence (Q8TDU6 1-330): T1 sequence (Q8TDU6 1-330)
As to the kind of experiment: TGR5 cAMP Assay using Cisbio cAMP Dynamic2 htrf kit (hTGR5CRE-luc HEK 293 cells). The experiment is classed as cell-based. Particulars: h-TGR5 cAMP EC50, Table 1; read-out: cAMP (EC50). The method in brief:
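[…], 4000 hTGR5CRE-luc HEK 293 cells per well, with 0.5 mM IBMX and d2-cAMP, were incubated 30 min at room temperature with compounds in 8-point half-log series, in quadruplicate.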

On to `CC(C)(c1ccc(Cl)c(S(N)(=O)=O)c1)c1cnc(SCc2c(F)cc(C(=O)O)cc2Cl)n1-c1ccc(F)cc1` [4-({[5-{1-[3-(aminosulfonyl)-4-chlorophenyl]-1-methylethyl}-1-(4-fluorophenyl)-1H-imidazol-2-yl]thio}methyl)-3-chloro-5-fluorobenzoic acid], for which the EC50 on human TGR5 (h-TGR5) and at h-TGR5 was 100 to 1000 nM each time.
For the molecule `CC(C)(c1ccc(S(N)(=O)=O)c(Cl)c1)c1cnc(SCc2ccc(S(=O)(=O)NC(=O)NN3CCCC3)cc2Cl)n1-c1ccc(F)cc1` [4-({[5-{1-[4-(aminosulfonyl)-3-chlorophenyl]-1-methylethyl}-1-(4-fluorophenyl)-1H-imidazol-2-yl]thio}methyl)-3-chloro-N-[(pyrrolidin-1-ylamino)carbonyl]benzenesulfonamide], the 50% effective concentration (EC50) on human TGR5 (h-TGR5) and on h-TGR5 was 100 to 1000 nM throughout.
In the case of `COc1cc(C(C)(C)c2cnc(COc3c(F)cc(C(=O)O)cc3Cl)n2-c2ccc(F)cc2)ccc1Cl` [3-chloro-4-({[5-{1-[4-chloro-3-(methyloxy)phenyl]-1-methylethyl}-1-(4-fluorophenyl)-1H-imidazol-2-yl]methyl}oxy)-5-fluorobenzoic acid], the half-maximal effective concentration (EC50) on human TGR5 (h-TGR5) and at h-TGR5 was 100 to 1000 nM throughout.
For the molecule `COc1cc(C(C)(C)c2cnc(SCc3c(F)cc(C(=O)NCCS(=O)(=O)O)cc3F)n2-c2ccc(F)cc2)ccc1Cl` [2-({[4-({[5-{1-[4-chloro-3-(methyloxy)phenyl]-1-methylethyl}-1-(4-fluorophenyl)-1H-imidazol-2-yl]thio}methyl)-3,5-difluorophenyl]carbonyl}amino) ethanesulfonic acid], the EC50 on human TGR5 (h-TGR5) and at h-TGR5 was below 100 nM in each case.
Consider `COc1cc(C(C)(C)c2cnc(SCc3c(F)cc(C(=O)NCCS(=O)(=O)O)cc3Cl)n2-c2ccc(F)cc2)ccc1Cl` [2-({[3-chloro-4-({[5-{1-[4-chloro-3-(methyloxy)phenyl]-1-methylethyl}-1-(4-fluorophenyl)-1H-imidazol-2-yl]thio}methyl)-5-fluorophenyl]carbonyl}amino)ethanesulfonic acid], for which the concentration for a half-maximal effect (EC50) on human TGR5 (h-TGR5) and on h-TGR5 was below 100 nM each time.
On to `COc1cc(-n2c(C(C)(C)c3ccc(Cl)c(Cl)c3)cnc2SCc2ccc(F)cc2Cl)ccc1F` [2-{[(2-chloro-4-fluorophenyl)methyl]thio}-5-[1-(3,4-dichlorophenyl)-1-methylethyl]-1-[4-fluoro-3-(methyloxy)phenyl]-1H-imidazole], for which the EC50 at human TGR5 (h-TGR5) and at h-TGR5 was 100 to 1000 nM throughout.
As to `CCOC(=O)NS(=O)(=O)c1ccc(CSc2ncc(C(C)(C)c3ccc(Cl)c(OC)c3)n2-c2ccc(F)cc2)c(F)c1` [ethyl {[4-({[5-{1-[4-chloro-3-(methyloxy)phenyl]-1-methylethyl}-1-(4-fluorophenyl)-1H-imidazol-2-yl]thio}methyl)-3-fluorophenyl]sulfonyl}carbamate], the EC50 at human TGR5 (h-TGR5) and at h-TGR5 was below 100 nM in each case.
Regarding `CC(C)(c1ccc(S(N)(=O)=O)c(Cl)c1)c1cnc(SCc2ccc(S(=O)(=O)NC(=O)NN3CCOCC3)cc2Cl)n1-c1ccc(F)c(F)c1` [4-({[5-{1-[4-(aminosulfonyl)-3-chlorophenyl]-1-methylethyl}-1-(3,4-difluorophenyl)-1H-imidazol-2-yl]thio}methyl)-3-chloro-N-[(morpholin-4-ylamino)carbonyl]benzenesulfonamide], the EC50 on human TGR5 (h-TGR5) and at h-TGR5 was 100 to 1000 nM each time.
As for `COc1cc(C(C)(C)c2cnc(SCc3c(F)cc(C(=O)N[C@@H](CCCNC(=N)N)C(=O)O)cc3Cl)n2-c2ccc(F)cc2)ccc1Cl` [N-2-{[3-chloro-4-({[5-{1-[4-chloro-3-(methyloxy)phenyl]-1-methylethyl}-1-(4-fluorophenyl)-1H-imidazol-2-yl]thio}methyl)-5-fluorophenyl]carbonyl}-L-arginine], the 50% effective concentration (EC50) at human TGR5 (h-TGR5) and at h-TGR5 was below 100 nM in each case.
`CC(C)(c1ccc(Cl)c(Cl)c1)c1cnc(CCc2ccc(S(N)(=O)=O)cc2Cl)n1-c1ccc(F)cc1` [3-chloro-4-(2-{5-[1-(3,4-dichlorophenyl)-1-methylethyl]-1-(4-fluorophenyl)-1H-imidazol-2-yl}ethyl)benzenesulfonamide]: the EC50 at human TGR5 (h-TGR5) lay within 100 to 1000 nM; at h-TGR5, 1000 to 10000 nM.
The matching figures for `CC(C)(c1cccc(S(C)(=O)=O)c1)c1cnc(SCc2c(F)cccc2Cl)n1-c1ccc(F)cc1` [2-{[(2-chloro-6-fluorophenyl)methyl]thio}-1-(4-fluorophenyl)-5-{1-methyl-1-[3-(methylsulfonyl)phenyl]ethyl}-1H-imidazole]: 100 to 1000 nM and below 100 nM.
As for `COc1cc(C(C)(C)c2c(Cl)nc(SCC3CCN(c4nnn[nH]4)CC3)n2-c2ccc(F)cc2)ccc1Cl` [4-({[4-chloro-5-{1-[4-chloro-3-(methyloxy)phenyl]-1-methylethyl}-1-(4-fluorophenyl)-1H-imidazol-2-yl]thio}methyl)-1-(1H-tetrazol-5-yl)piperidine], the results for the half-maximal effective concentration (EC50) at human TGR5 (h-TGR5) and at h-TGR5 were below 100 nM and 1000 to 10000 nM, respectively.
The matching figures for `COc1cc(C(C)(C)c2cnc(SCc3ccc(S(=O)(=O)NC(=O)N4CCCC4)cc3Cl)n2-c2ccc(F)cc2)ccc1Cl` [N-{[3-chloro-4-({[5-{1-[4-chloro-3-(methyloxy)phenyl]-1-methylethyl}-1-(4-fluorophenyl)-1H-imidazol-2-yl]thio}methyl)phenyl]sulfonyl}pyrrolidine-1-carboxamide]: 100 to 1000 nM and below 100 nM.
The matching figures for `COc1cc(C(C)(C)c2cnc(SCc3c(F)cc(CCCCNC(=N)N)cc3F)n2-c2ccc(F)cc2)ccc1Cl` [1-{4-[4-({[5-{1-[4-chloro-3-(methyloxy)phenyl]-1-methylethyl}-1-(4-fluorophenyl)-1H-imidazol-2-yl]thio}methyl)-3,5-difluorophenyl]butyl}guanidine]: below 100 nM and below 100 nM.
The matching figures for `CC(C)(c1ccc(Cl)c(Cl)c1)c1cnc(SCC2CCCN(c3nnn[nH]3)C2)n1-c1ccc(F)cc1` (centres unmarked) [3-[({5-[1-(3,4-dichlorophenyl)-1-methylethyl]-1-(4-fluorophenyl)-1H-imidazol-2-yl}thio)methyl]-1-(1H-tetrazol-5-yl)piperidine]: 1000 to 10000 nM and 1000 to 10000 nM.
`COc1cc(-n2c(C(C)(C)c3ccc(Cl)c(Cl)c3)cnc2SCc2ccc(S(=O)(=O)NC(=O)NN3CCOCC3)cc2Cl)ccc1F` [3-chloro-4-[({5-[1-(3,4-dichlorophenyl)-1-methylethyl]-1-[4-fluoro-3-(methyloxy)phenyl]-1H-imidazol-2-yl}thio)methyl]-N-[(morpholin-4-ylamino)carbonyl]benzenesulfonamide]: the EC50 at human TGR5 (h-TGR5) and at h-TGR5 was 100 to 1000 nM each time.
As for `CC(C)(O)COc1ccc(CSc2ncc(C(C)(C)c3ccc(Cl)c(Cl)c3)n2-c2ccc(F)cc2)cc1S(N)(=O)=O` [5-[({5-[1-(3,4-dichlorophenyl)-1-methylethyl]-1-(4-fluorophenyl)-1H-imidazol-2-yl}thio)methyl]-2-[(2-hydroxy-2-methylpropyl)oxy]benzenesulfonamide], the EC50 was below 100 nM at human TGR5 (h-TGR5) and 100 to 1000 nM on h-TGR5.
Turning to `CC(C)(c1ccc(F)c(F)c1)c1cnc(SCc2cc(C(=O)O)ccc2Cl)n1-c1ccc(F)cc1` [4-chloro-3-[({5-[1-(3,4-difluorophenyl)-1-methylethyl]-1-(4-fluorophenyl)-1H-imidazol-2-yl}thio)methyl]benzoic acid], the EC50 on human TGR5 (h-TGR5) and at h-TGR5 was 100 to 1000 nM throughout.
`CC(C)(c1ccc2ccccc2c1)c1cnc(SCc2c(F)cc(C(=O)O)cc2F)n1-c1ccc(F)cc1` [3,5-difluoro-4-({[1-(4-fluorophenyl)-5-(1-methyl-1-naphthalen-2-ylethyl)-1H-imidazol-2-yl]thio}methyl)benzoic acid]: the concentration giving a half-maximal response (EC50) on human TGR5 (h-TGR5) and at h-TGR5 was 100 to 1000 nM throughout.
Turning to `COc1cc(-n2c(C(C)(C)c3ccc4onc(N)c4c3)cnc2SCc2c(F)cc(C(=O)NC(CCCNC(=N)N)C(=O)O)cc2Cl)ccc1F` [N-2-({4-[({5-[1-(3-amino-1,2-benzisoxazol-5-yl)-1-methylethyl]-1-[4-fluoro-3-(methyloxy)phenyl]-1H-imidazol-2-yl}thio)methyl]-3-chloro-5-fluorophenyl}carbonyl]-D-arginine], the EC50 on human TGR5 (h-TGR5) and at h-TGR5 was below 100 nM in each case.
Regarding `COc1cc(-n2c(C(C)(C)c3ccc(S(N)(=O)=O)c(Cl)c3)cnc2SCc2c(F)cc(C(=O)NCCC(=O)O)cc2F)ccc1F` [N-[(4-{[(5-{1-[4-(aminosulfonyl)-3-chlorophenyl]-1-methylethyl}-1-[4-fluoro-3-(methyloxy)phenyl]-1H-imidazol-2-yl)thio]methyl}-3,5-difluorophenyl)carbonyl]-beta-alanine], the EC50 at human TGR5 (h-TGR5) and on h-TGR5 was below 100 nM throughout.
`COc1cc(C(C)(C)c2cnc(SCc3c(F)cc(C(=O)O)cc3Cl)n2-c2cccnc2)ccc1Cl` [3-chloro-4-{[(5-{1-[4-chloro-3-(methyloxy)phenyl]-1-methylethyl}-1-pyridin-3-yl-1H-imidazol-2-yl)thio]methyl}-5-fluorobenzoic acid]: the EC50 on human TGR5 (h-TGR5) and on h-TGR5 was 1000 to 10000 nM throughout.
